Results: patent US6133467A, “2,6-di-t-butyl-4-[(dimethyl-4-methoxyphenylsilyl)-methyl-oxy]phenol and 2,6-di-t-butyl-4-[(dimethyl-2-methoxy-phenylsilyl)methyloxy]phenol” (Hoechst Marion Roussel, Inc., priority 1998, dated 2000)
Where two headings read alike, the source gives them in different places.

Experiments:
[1] = test system: cholesterol-fed female New Zealand White rabbits (aortic lesions); test: Antiatherosclerotic effect: aorta staining (Sudan IV) and lesion quantitation in cholesterol-fed female New Zealand White rabbits; type: in vivo, rabbit (New Zealand White; conditions: for Aortic Lesion % of Area, Abdom. (abdominal), as a percent of control: abdominal aorta; for Aortic Lesion % of Area, Abdom. (abdominal), as a percent of control / Aortic Lesion % of Area, Arch, as a percent of control / Aortic Lesion % of Area, Thor. (thoracic), as a percent of control / Aortic Lesion % of Area, Total, as a percent of control: 70 days, diet I 0.15%*, II and III 0.40%; for Aortic Lesion % of Area, Thor. (thoracic), as a percent of control: thoracic aorta; for Aortic Lesion % of Area, Total, as a percent of control: total surface area of aorta; for reduction of total aortic lesions: average, vs control rabbits, 0.15% for Compound I compared to 0.4% for Compound III
Experimental: (§1) Female New Zealand White rabbits (Hazelton, ~2.0-2.3 kg) were fed 0.5% cholesterol/10% corn oil enriched rabbit chow (Purina # 5322) with or without test compound. The experiment was conducted for 70 days. The test compounds were solubilized in 100% ethanol and sprayed on the chow; control chows were sprayed with ethanol. The chows were dried overnight in a chemical fume hood. Rabbits were fed 100 grams food per day; water was available ad libitum. On the last day of the study rabbits (fasted overnight) were bled (~2 mL) from a marginal ear vein periodically to monitor serum cholesterol levels. The rabbits were euthanized on day 70 by carbon dioxide overdose. The total body and liver weights were recorded in grams. Food consumption was recorded as grams.cndot.day^-1. Aliquots of fresh serum were used for clinical chemistries and copper induced thiobarbituric acid reactive substances (TBARS). Aliquots of serum and livers (~5 gram) were frozen at -20° C. for compound and metabolite concentration determination at a later time.
The aortas were dissected from rabbits immediately after they were killed. The aorta from the ascending arch to the iliac bifurcation was excised after debridement of extraneous adipose tissue. Aortas were stored overnight in phosphate buffered saline (PBS)/0.02% sodium azide, pH 7.4, at 4° C. until final debridement. Before staining, aortas were cut open longitudinally and stained with Sudan IV as follows. Sudan IV stain (5.0 g) was added to 500 mL of 70% ethanol, 500 mL of acetone were added, and the solution was stirred overnight at room temperature. The solution was filtered through Whatman #1 filter paper. Aortas were rinsed with 70% ethanol for 10 minutes. They were stained with Sudan IV for 60 min at room temperature, rinsed with 70% ethanol for 5-10 min, and stored in deionized water overnight at 4° C. They were stored in PBS/0.02% sodium azide at 4° C. until imaging could be completed.
The areas containing sudanophilic lesions were quantitated as follows. Aortas were pinned flat onto black plastic sheets, illuminated with several fiber optic light sources, and photographed with a KODAK DCS-420 digital camera mounted on a copy stand. Images were captured and converted to 24 bit color TIFFs with Image Pals image editor software. The resulting images were rescaled to 1024×683 pixels to permit input into the Simple image analysis system and transferred to optical disk storage media. The Simple software was programmed to allow a region of interest to be drawn around the section of the aorta (arch, thoracic, abdominal) which separated the image of the aorta from the pins and the background. the program determined the tissue area in pixels based on pre-selected thresholds of hue, saturation, and intensity. These thresholds were adjusted to recognize the lesion area, and the percent fraction (# lesion pixels/# tissue pixels) was determined. This process was repeated on each portion of the aorta for each rabbit.
(§2) % Control = (Mean, treated group / Mean, control group) × (100)
Total = % area of total surface area of aorta covered with lesions
Arch, Thoracic, Abdominal = % area of each segments of the aorta

[2] = test system: serum cholesterol and triglycerides; test: Clinical chemistries: serum total cholesterol and triglycerides in cholesterol-fed rabbits; type: in vivo, rabbit (New Zealand White, female); conditions: for TRIG (triglycerides) as a percent of control / chol tot. (total cholesterol) as a percent of control: serum, 70 days, diet I 0.15%*, II and III 0.40%; for increase of triglycerides: vs control rabbits
Experimental: as §1
Blood was allowed to clot at room temperature for 30 minutes. Serum was obtained after centrifugation for 10 min at 5° C. at 3000 rpm in a Beckman GPKR centrifuge with a GH 3.7 rotor. Fresh serum was analyzed by a COBA MIRA S autoanalyzer (Roche Diagnostics) using Roche diagnostic reagents for total cholesterol (CHOL, kit # 44334) and triglyceride (TG, kit # 44120). Cholesterol and triglycerides were calculated as mg/dL.
as §2
CHOL = total cholesterol mg/dL
TRIG = triglycerides, mg/dL

[3] = Body weight and liver weight/body weight in cholesterol-fed rabbits; type: in vivo, rabbit (New Zealand White, female); conditions: II and III 0.40%; for body wt. as a percent of control: 70 days in 0.5% cholesterol/10% corn oil chow, diet I 0.15% (0.4% × 7 days, 0% × 7 days, then 0.15% × 56 days); for lw/bw (liver weight / body weight) as a percent of control: 70 days, diet I 0.15%*
Experimental: as §1, §2
Body wt. = weight in kilograms
liver wt. = weight in kilograms
LW/BW = (liver weight / body weight)

[4] = HPLC quantitation of serum and liver compound and metabolite concentration; type: in vivo, rabbit (New Zealand White, female); conditions: for concentration at 1680 h: rabbit, po; for Serum Parent: parent compound concentration: 100800 min
Experimental: as §1
Serum and liver concentrations of parent compounds and the metabolites, bisphenol and diphenoquinone, were determined by reverse phase HPLC using a Waters 990 Powerline system. Mao, S. J. T. et al., Meth. of Enzymol. 234, 517-525 (1994); Satoni, D. K. and Coutant, J. E., J. Chrom. 380, 401-406 (1986). Livers (1 gram) were homogenized with 5.0 mL PBS, pH 7.4, using a Polytron tissue homogenizer at setting 5 for 20-30 seconds. Serum or liver homogenates were extracted as follows: 100 μL of serum or homogenate were added to 2.0 mL diethyl ether: ethanol (3:1) while vortexing the tube. The sample tubes were capped and centrifuged for 10 min at 5° C. at 3500 rpm in a Beckman GPKR centrifuge with a GH 3.7 rotor. The supernatants were transferred to clean tubes and dried under N2. Samples were reconstituted with 200 μL of acetonitrile:hexane:0.1 M ammonium acetate (90:6.5:3.5, by vol.). Then, 100 μL were injected onto a Waters Deltapak C18-300 Å column, and eluted with an 83% acetonitrile: 17% water mobile phase at a flow rate of 1.5 mL/min. Absorbances at the wavelengths of 240, 254, and 420 nm were recorded. Compound concentrations were calculated from known quantities of authentic parent compounds after correction for recovery; the range of recovery from spiked samples was 40 to 100%. The lowest detectable limit for this class of compounds was ~0.5 μg/mL. Concentrations were calculated as of μg/mL serum and of […].
Sample compound concentrations in serum and liver are presented as
μg/mL or μg/g, respectively.
Serum Parent = parent compound concentration as μg/mL of serum
Serum Bis = bisphenol concentration as μg/mL of serum
Serum Quin = diphenoquinone concentration as […]
Liver Parent = parent compound concentration as μg/g liver
Liver Bis = bisphenol concentration as μg/g liver
Liver Quin = diphenoquinone concentration as μg/g liver
0 = value less than detectable limit of HPLC system

[5] = test system: serum lipid oxidation (TBARS); test: TBARS assay: copper-induced oxidation of serum lipids from treated rabbits; type: in vivo, rabbit (New Zealand White, female); conditions: CuSO4 37° C. 5 hr, diet I 0.15%*, II and III 0.40%
Experimental: as §1
TBARS are a […] indication of the oxidation of lipids in a sample. Mao, S J T et al. Meth. of Enzymol. 234, 517-525 (1994). In this assay copper sulfate was used to initiate the oxidation serum lipids, resulting in the formation of aldehydes, such as malondialdehyde (MDA). Upon incubation with thiobarbituric acid, the absorbance of the aldehydes was detected at 530-540 nm. TBARS values which are lower than control serum values indicate the relative ability of a test compound to inhibit the oxidation. TBARS were measured as follows: 50 μL of serum were mixed with 50 μL of 0.9% saline and 400 μL of a 5 mmol CuSO4 solution and incubated at 37° C. for 5 hr. The reactions were stopped by addition of 1.0 mL of 20% trichloroacetic acid. […] Absorbances were measured at 540 nm using a Biotek model EL311 microplate reader. The nmoles of MDA produced were calculated from a standard curve of 0 to 10 nmoles of MDA prepared from malonaldehyde bis(dimethyacetal). […]
TBARS = thiobarbituric acid reactive substances, expressed as nmole MDA

[6] = liver, diet I 0.15%*, II and III 0.40%, read-out: Liver Parent: parent compound concentration
[7] = liver, read-out: concentration of parent compound in livers
[8] = serum, diet I 0.15% (0.4% × 7 days, 0% × 7 days, then 0.15% × 56 days), II and III 0.40%, read-out: Serum Parent: parent compound concentration
[9] = serum, diet I 0.15% (0.4% × 7 days, 0% × 7 days, then 0.15% × 56 days), II and III 0.40%

## COc1ccccc1[Si](C)(C)COc1cc(C(C)(C)C)c(O)c(C(C)(C)C)c1 [Compound II, 2,6-di-t-butyl-4-[(dimethyl-2-methoxyphenylsilyl)methyloxy]phenol]
[1]
  Aortic Lesion % of Area, Abdom. (abdominal), as a percent of control: 50%
  Aortic Lesion % of Area, Arch, as a percent of control: 56%
  Aortic Lesion % of Area, Thor. (thoracic), as a percent of control: 44%
  Aortic Lesion % of Area, Total, as a percent of control: 55%
[2]
  TRIG (triglycerides) as a percent of control: 100%
  chol tot. (total cholesterol) as a percent of control: 79%
  increase of triglycerides: did not show an undesirable increase of triglycerides
[3]
  body wt. as a percent of control: 98%
  lw/bw (liver weight / body weight) as a percent of control: 86%
[4]; [6]
  concentration at 1680 h: 80900 ng/g
[4]; [7]
  concentration at 1680 h: 80.9 µg/mL
[4]; [8]
  concentration at 1680 h: 93.3 µg/mL
[4]
  bisphenol and diphenoquinone metabolites in serum and livers: none of the bisphenol and diphenoquinone metabolites of Compounds I or II were detected in either serum or livers
[4]; [9]
  Serum Parent: parent compound concentration: 93.3 µg/mL
[5]
  TBARS (nmole MDA) as a percent of control: 90%

## CC(C)(C)c1cc(SC[Si](C)(C)c2ccccc2)cc(C(C)(C)C)c1O [Compound III, 2,6-di-t-butyl-4-[(dimethylphenylsilyl)methylthio]phenol, reference compound]
[1]
  Aortic Lesion % of Area, Abdom. (abdominal), as a percent of control: 30%
  Aortic Lesion % of Area, Arch, as a percent of control: 50%
  reduction of total aortic lesions: 57%
  Aortic Lesion % of Area, Thor. (thoracic), as a percent of control: 30%
  Aortic Lesion % of Area, Total, as a percent of control: 43%
[2]
  TRIG (triglycerides) as a percent of control: 783%
  chol tot. (total cholesterol) as a percent of control: 64%
[3]
  body wt. as a percent of control: 89%
  lw/bw (liver weight / body weight) as a percent of control: 98%
[4]; [6]
  concentration at 1680 h: 323000 ng/g
[4]; [7]
  concentration at 1680 h: 323 µg/mL
[4]; [8]
  concentration at 1680 h: 182 µg/mL
[4]
  bisphenol and diphenoquinone metabolites in serum and livers: undesirably high concentrations in both serum and livers
[4]; [9]
  Serum Parent: parent compound concentration: 182.4 µg/mL
[5]
  TBARS (nmole MDA) as a percent of control: 18%

## COc1ccc([Si](C)(C)COc2cc(C(C)(C)C)c(O)c(C(C)(C)C)c2)cc1 [Compound I, 2,6-Di-t-butyl-4-[(dimethyl-4-methoxyphenylsilyl)methyloxy]phenol]
[1]
  Aortic Lesion % of Area, Abdom. (abdominal), as a percent of control: 10%
  Aortic Lesion % of Area, Arch, as a percent of control: 5%
  reduction of total aortic lesions: 96%
  Aortic Lesion % of Area, Thor. (thoracic), as a percent of control: 3%
  Aortic Lesion % of Area, Total, as a percent of control: 4%
[2]
  TRIG (triglycerides) as a percent of control: 22%
  chol tot. (total cholesterol) as a percent of control: 28%
  increase of triglycerides: did not show an undesirable increase of triglycerides
[3]
  body wt. as a percent of control: 95%
  lw/bw (liver weight / body weight) as a percent of control: 89%
[4]; [6]
  concentration at 1680 h: 44900 ng/g
[4]; [7]
  concentration at 1680 h: 44.9 µg/mL
[4]; [8]
  concentration at 1680 h: 7.3 µg/mL
[4]
  bisphenol and diphenoquinone metabolites in serum and livers: none of the bisphenol and diphenoquinone metabolites of Compounds I or II were detected in either serum or livers
[4]; [9]
  Serum Parent: parent compound concentration: 7.3 µg/mL
[5]
  TBARS (nmole MDA) as a percent of control: 56%
